Data on eleven compounds can be found in ChEMBL document CHEMBL5512603, “Development of de-novo coronavirus 3-chymotrypsin-like protease (3CLpro) inhibitors since COVID-19 outbreak: A strategy to tackle challenges of persistent virus infection” (Eur J Med Chem, 2024).

Data set [1] deals with T1, Replicase polyprotein 1ab (Severe acute respiratory syndrome coronavirus 2, UniProt P0DTD1). Briefly: Inhibition of recombinant SARS-CoV2 6xHis-tag-Main protease containing modified HRV-3C expressed in Escherichia coli using Mca-AVLQSGFR-K(Dnp)K peptide substrate assessed as fluorescent intensity.
In data set [2] the test system is SARS-CoV-2. In words: Anti-viral activity against SARS-CoV-2 infected in K18-hACE2 mouse assessed as reduction in virus in lung at 100 mg/kg, ip twice daily measured after day 3. It counts as functional. The note with it: Severe acute respiratory syndrome coronavirus 2, 72 h, time 3 day.
Data set [3] is described as follows: Half life in rat. In kind it is ADME. The note with it: in vivo.
Data set [4] relates to SARS-CoV-2. Briefly: Antiviral activity against SARS-CoV-2 P.3 (Theta) infected in African green monkey VeroE6/TMPRSS2 cells at 1 MOI assessed as reduction in plaque formation measured after 48 hrs by measuring luciferase activity assay. It counts as functional, organism-based. The note with it: Severe acute respiratory syndrome coronavirus 2, P.3 (Theta), VeroE6/TMPRSS2, 48 h.

Data set [5] can be described thus: AUC in ICR mouse measured at 150 mg/kg, po upto 24 hrs by LC-MS/MS analysis. It counts as ADME, organism-based. The note with it: in vivo.
Data set [6] has as its system SARS-CoV-2. In words: Antiviral activity against SARS-CoV-2 B.1.617.1 (Kappa) infected in African green monkey VeroE6/TMPRSS2 cells at 1 MOI assessed as reduction in plaque formation measured after 48 hrs by measuring luciferase activity assay. In kind it is functional, organism-based. The note with it: Severe acute respiratory syndrome coronavirus 2, B.1.617.1 (Kappa), VeroE6/TMPRSS2, 48 h.

Data set [7] deals with SARS-CoV-2. Briefly: Antiviral activity against SARS-CoV-2 B.1.1.7 (Alpha) infected in African green monkey VeroE6/TMPRSS2 cells at 1 MOI assessed as reduction in plaque formation measured after 48 hrs by measuring luciferase activity assay. It counts as functional, organism-based. The note with it: Severe acute respiratory syndrome coronavirus 2, B.1.1.7 (Alpha), VeroE6/TMPRSS2, 48 h.

A short description of data set [8]: Half life in ICR mouse measured at 150 mg/kg, po upto 24 hrs by LC-MS/MS analysis. In kind it is ADME, organism-based. The note with it: in vivo.
Data set [9] in a line: Oral bioavailability in ICR mouse measured at 150 mg/kg upto 24 hrs by LC-MS/MS analysis. It counts as ADME, organism-based. The note with it: in vivo.
Data set [10] has as its system SARS-CoV-2. Briefly: Antiviral activity against wild type SARS-CoV-2 infected in African green monkey VeroE6/TMPRSS2 cells at 1 MOI assessed as reduction in plaque formation measured after 48 hrs by measuring luciferase activity assay. In kind it is functional, organism-based. The settings on record: Severe acute respiratory syndrome coronavirus 2, VeroE6/TMPRSS2, 48 h.

Data set [11] has as its system SARS-CoV-2. In words: Antiviral activity against SARS-CoV-2 infected in African green monkey Vero cells. The note with it: Severe acute respiratory syndrome coronavirus 2, Vero. It counts as functional, organism-based.
In data set [12] the test system is SARS-CoV-2. In words: Antiviral activity against SARS-CoV-2 Canada/Vido 01/2020 infected in African green monkey Vero E6 cells assessed as inhibition of viral replication incubated for 48 hrs by plaque reduction assay. It counts as functional, organism-based. The note with it: Severe acute respiratory syndrome coronavirus 2, Canada/Vido 01/2020, Vero C1008, 48 h. In general terms: Plaque reduction counts the foci of infection that form in a cell layer.

Data set [13] in a line: Half life in cynomolgus monkey at 5 mg/kg, po. It counts as ADME, organism-based, Macaca fascicularis. The note with it: in vivo.
For data set [14], the system named is SARS-CoV-2. In words: Antiviral activity against SARS-CoV-2 Omicron BA.1 infected in African green monkey Vero E6 cells assessed as inhibition of virus induced cytopathic effect by MTT assay. It counts as functional, organism-based. The settings on record: Severe acute respiratory syndrome coronavirus 2, Omicron BA.1, Vero C1008.
The test system of data set [15] is SARS-CoV-2. In words: Antiviral activity against wild type SARS-CoV-2 infected in African green monkey Vero E6 cells assessed as inhibition of virus induced cytopathic effect by MTT assay. The settings on record: Severe acute respiratory syndrome coronavirus 2, Vero C1008. It counts as functional, organism-based.
Data set [16] can be described thus: AUC (0 to last) in cynomolgus monkey at 5 mg/kg, po. It counts as ADME, organism-based, Macaca fascicularis. The note with it: in vivo.
The subject of data set [17] is SARS-CoV-2. In words: Antiviral activity against SARS-CoV-2 Delta infected in African green monkey Vero E6 cells assessed as inhibition of virus induced cytopathic effect by MTT assay. In kind it is functional, organism-based. The note with it: Severe acute respiratory syndrome coronavirus 2, Delta, Vero C1008. A general note: Protection from cytopathic effect is a common read-out in antiviral testing.

Data set [18] is described as follows: Cmax in cynomolgus monkey at 5 mg/kg, po. In kind it is ADME, organism-based, Macaca fascicularis. The settings on record: in vivo.
For data set [19], the system named is SARS-CoV-2. Briefly: Antiviral activity against SARS-CoV-2 Omicron BA.5 infected in African green monkey Vero E6 cells assessed as inhibition of virus induced cytopathic effect by MTT assay. It counts as functional, organism-based. The note with it: Severe acute respiratory syndrome coronavirus 2, Omicron BA.5, Vero C1008.
Data set [20] deals with SARS-CoV-2. In words: Antiviral activity against SARS-CoV-2 Beta infected in African green monkey Vero E6 cells assessed as inhibition of virus induced cytopathic effect by MTT assay. The note with it: Severe acute respiratory syndrome coronavirus 2, Beta, Vero C1008. It counts as functional, organism-based.
Data set [21] relates to SARS-CoV-2. In words: Antiviral activity against SARS-CoV-2 Alpha infected in African green monkey Vero E6 cells assessed as inhibition of virus induced cytopathic effect by MTT assay. It counts as functional, organism-based. The note with it: Severe acute respiratory syndrome coronavirus 2, Alpha, Vero C1008.
Data set [22] can be described thus: Tmax in cynomolgus monkey at 5 mg/kg, po. In kind it is ADME, organism-based, Macaca fascicularis. The settings on record: in vivo.
For data set [23], the target named is T1, Replicase polyprotein 1ab. Briefly: Inhibition of SARS-CoV-2 3CLp using fluorescent substrate by FRET assay.
The subject of data set [24] is SARS-CoV-2. In words: Antiviral activity against SARS-CoV-2 infected in African green monkey Vero E6 cells at 0.1 MOI assessed as inhibition of virus induced cytopathic effect by CCK8 assay. In kind it is functional, organism-based. The settings on record: Severe acute respiratory syndrome coronavirus 2, Vero C1008.
The subject of data set [25] is SARS-CoV-2. In words: Antiviral activity against SARS-CoV-2 infected in Caco-2-ACE2 assessed as inhibition of viral replication. It counts as functional, organism-based. The settings on record: Severe acute respiratory syndrome coronavirus 2, Caco-2-ACE2.
For data set [26], the target named is Protein cereblon/Replicase polyprotein 1ab (Severe acute respiratory syndrome coronavirus 2, UniProt P0DTD1+Q96SW2). In words: PROTAC activity at SARS-CoV-2 Main protease/CRBN (unknown origin) in SARS-CoV-2 infected african green monkey Vero cell assessed as inhibition of virus-mediated cytopathic effect measured after 72 hrs. In kind it is cell-based.
Chain of Protein cereblon/Replicase polyprotein 1ab (Q96SW2 whole entry, other chains not shown): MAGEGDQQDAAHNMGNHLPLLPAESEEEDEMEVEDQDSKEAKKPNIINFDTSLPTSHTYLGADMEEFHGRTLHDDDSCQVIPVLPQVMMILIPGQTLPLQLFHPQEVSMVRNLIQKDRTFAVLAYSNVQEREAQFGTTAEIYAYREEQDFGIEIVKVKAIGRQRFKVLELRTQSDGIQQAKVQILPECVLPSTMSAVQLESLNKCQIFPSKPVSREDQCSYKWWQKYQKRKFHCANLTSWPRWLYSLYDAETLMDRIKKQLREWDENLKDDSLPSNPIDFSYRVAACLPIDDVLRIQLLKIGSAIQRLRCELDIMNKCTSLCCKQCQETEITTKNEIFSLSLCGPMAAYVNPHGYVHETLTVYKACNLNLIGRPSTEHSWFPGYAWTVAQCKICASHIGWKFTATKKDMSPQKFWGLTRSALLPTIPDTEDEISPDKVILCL
The test system of data set [27] is SARS-CoV-2. Briefly: Antiviral activity against wild type SARS-CoV-2 infected in human Calu-3 cells. In kind it is functional, organism-based. The settings on record: Severe acute respiratory syndrome coronavirus 2, Calu-3.
A short description of data set [28]: Oral bioavailability in Sprague-Dawley rat at 20 mg/kg. In kind it is ADME, organism-based. The settings on record: in vivo.
Data set [29] is described as follows: Bioavailability in Sprague-Dawley rat at 20 mg/kg, ip. It counts as ADME, organism-based. The note with it: in vivo.
Data set [30] concerns SARS-CoV-2. Briefly: Antiviral activity against SARS-CoV-2 infected in HAPEpIC cells at 0.01 MOI assessed as reduction in viral RNA copies by RT-qPCR analysis. It counts as functional, organism-based. The note with it: Severe acute respiratory syndrome coronavirus 2. Background: Quantitative PCR measures a nucleic acid by following its amplification.

pEC50, pIC50: −log10 of the molar value.

On to `COC(=O)Cn1sc2ccccc2c1=O`, for which the pIC50 (commonly the IC50 on a negative log10 scale, so that one unit is a factor of ten) in [1] was 5.55.

With `O=C[C@H](C[C@@H]1CCNC1=O)NC(=O)[C@H](CC1CCCCC1)NC(=O)c1cc2ccccc2[nH]1`, the inhibition in vivo – broadly, how much of the control response was suppressed – at 100 mg/kg in the data set with SARS-CoV-2 [2] amounted to 100%. In addition, in data set [3], the half-life – broadly, how long it takes for the measured level to halve – is over 4 h.

`[2H][C@](C(=O)N[C@@H](C)c1ccc(F)cc1)(c1cccnc1)N(C(=O)C(C)=O)c1ccc2c(c1)oc1ccccc12`: the pEC50 (usually −log10 of the EC50, conventionally taken in molar units) in the data set with SARS-CoV-2 [4] is 7.63; in the data set with SARS-CoV-2 [6], 7.46; in the data set on SARS-CoV-2 [7], 7.69; in the data set with SARS-CoV-2 [10], 7.94. The area under the curve (AUC) (in general, concentration integrated over time) at 24 h in data set [5] is 29200 ng·h/mL. This compound gave a half-life in data set [8] of 1.42 h. In addition, in [9], the bioavailability (usually the share of a dose that reaches the circulation, judged against a reference dose that is usually intravenous) is 92.9%.

In the data set on SARS-CoV-2 [11], `C[C@H](NC(=O)[C@@H](c1cccnc1)N(C(=O)C(Cl)Cl)c1ccc(-c2ccccc2)cc1)c1ccccc1` gave a negative logarithm of the EC50 (pEC50) of 6.05.

In the case of `COc1cccc2[nH]c(C(=O)N[C@@H](CC(C)C)C(=O)N[C@H](C#N)C[C@@H]3CCNC3=O)cc12`, the negative logarithm of the EC50 (pEC50) with SARS-CoV-2 [12] is under 5.30.

For `C[C@H](NC(=O)[C@@H](c1cccnc1)N(C(=O)C(Br)(Br)Br)c1ccc(-c2ccccc2)cc1)c1ccccc1`, the pEC50 in the data set on SARS-CoV-2 [11] is 6.24.

In [13], `O=C(NC1CCCC1)C(=O)[C@H](C[C@@H]1CCNC1=O)NC(=O)[C@@H]1[C@H]2CCC[C@H]2CN1C(=O)[C@@H](NC(=O)C(F)(F)F)C1CCCCC1` showed a half-life of 14.9 h. Besides, the negative-log EC50 (pEC50) in the data set on SARS-CoV-2 [14] is 7.07; in the data set on SARS-CoV-2 [15], 7.02; in the data set with SARS-CoV-2 [17] it was 7.01; in the data set with SARS-CoV-2 [19], 6.89; in the data set on SARS-CoV-2 [20], 6.56; in the data set on SARS-CoV-2 [21] it was 6.89. In addition, in data set [16], the exposure AUC(0-t) – broadly, exposure summed from dosing to a finite time, without extrapolation to infinity – stood at 0.458 µM·h. The concentration in [18] peaked (Cmax) at 102 nM. Also, the Tmax (in general, the time from dosing to the highest level) in data set [22] was determined as 1.5 h.

As for `O=C[C@@H](C[C@H]1CCNC1=O)NC(=O)[C@H]1[C@@H]2CCC[C@@H]2CN1C(=O)OCc1ccccc1`, the pIC50 in [23] is 7.29. Besides, the figures for the pEC50 in the data set on SARS-CoV-2 [24] and in the data set with SARS-CoV-2 [25] were 5.59 and 5.28, respectively.

Regarding `Cc1c(COC(=O)N[C@@H](CC(C)C)C(=O)N[C@@H](C[C@@H]2CCNC2=O)C(O)S(=O)(=O)O)nnn1CCOCCOCCOCCC(=O)Nc1cccc2c1C(=O)N(C1CCC(=O)NC1=O)C2=O` (some centres not stated), the negative logarithm of the EC50 (pEC50) in data set [26] is 5.67.

In turn, `COc1ccc(/C=C(\C#N)C(=O)N(c2ccc(-c3ccccc3)cc2)[C@@H](C(=O)N[C@@H](C)c2ccccc2)c2cccnc2)cc1` gave a pEC50 with SARS-CoV-2 [27] of 5.19.

As to `CC1(C)[C@@H]2[C@H]1CN(C(=O)COc1ccc(OC(F)(F)F)cc1)[C@H]2C(=O)N[C@@H](C=O)C[C@H]1CCNC1=O`, the bioavailability turned out to be 11.2% in data set [28] and 78% in data set [29]. The negative logarithm of the EC50 (pEC50) with SARS-CoV-2 [24] was 6.07; in the data set with SARS-CoV-2 [30] it was 8.92.
